Measurements from publication PMC11820700, “Antioxidant, Enzyme-Inhibitory and Antimicrobial Activity of Underutilized Wheat and Maize Crop Residues” (Plants, 2025).
≈ marks a conversion by molar mass, not a printed value. Where “and” joins values, the source holds several entries; their conditions need not be identical. Equal entries are not always repeated. Where two headings read alike, the source gives them in different places. Marks after values point to notes of the source that are not given here.

Tests used:
[1] = test system: methicillin-resistant Staphylococcus aureus (MRSA); conditions: ref Alves et al. (2013) [45]; cited from earlier work
[2] = test system: Candida albicans ATCC 10231; experiment: Broth microdilution MIC; format: cell-based; conditions: 48 h
[3] = test system: Enterococcus faecalis ATCC 29212; experiment: Broth microdilution MIC; format: cell-based; conditions: 24 h
α-amylase = conditions: ref Jeong et al. (2012) [29], cited from earlier work
[4] = DPPH free radical scavenging assay
[5] = biological target: α-glucosidase from bakers’ yeast (Saccharomyces cerevisiae, UniProt P53341); format: biochemical
[6] = cited from earlier work; for DPPH radical inhibition: concentrations 50–1000 µg/mL, ref Jeong et al. (2010) [24]
[7] = test system: Klebsiella pneumoniae NCIMB 9111; experiment: Broth microdilution MIC; format: cell-based; conditions: 24 h
[8] = ABTS free radical scavenging assay
[9] = test system: clinical isolates of both Gram-positive and Gram-negative bacteria; parameters: method as in Alves et al. (2013) [45]; conditions: ref Alves et al. (2013) [45]; cited from earlier work
[10] = test system: Escherichia coli ATCC 8739; experiment: Broth microdilution MIC; format: cell-based; conditions: 24 h
[11] = test system: Pseudomonas aeruginosa ATCC 9027; experiment: Broth microdilution MIC; format: cell-based; conditions: 24 h
[12] = biological target: butyrylcholinesterase (BChE) from equine serum (Equus caballus, UniProt P81908); experiment: biochemical; format: biochemical
[13] = biological target: acetylcholinesterase (AChE) from Electrophorus electricus (Electrophorus electricus, UniProt O42275); experiment: biochemical
α-glucosidase = conditions: cited from earlier work
[14] = FRAP ferric reducing power assay
[15] = test system: Bacillus subtilis ATCC 6633; experiment: Broth microdilution MIC; format: cell-based; conditions: 24 h
[16] = test system: Staphylococcus aureus ATCC 6538; experiment: Broth microdilution MIC; format: cell-based; conditions: 24 h, extracts 62.5–1000, compounds 31.25–500 µg/mL tested
[17] = biological target: T1, α-amylase from porcine pancreas (Sus scrofa, UniProt P00690); experiment: biochemical
T1 construct: purchased Merck KGaA (Darmstadt, Germany) type VI-B (catalogue number not given); host or cells: porcine pancreas
T1 sequence (P00690 16-511): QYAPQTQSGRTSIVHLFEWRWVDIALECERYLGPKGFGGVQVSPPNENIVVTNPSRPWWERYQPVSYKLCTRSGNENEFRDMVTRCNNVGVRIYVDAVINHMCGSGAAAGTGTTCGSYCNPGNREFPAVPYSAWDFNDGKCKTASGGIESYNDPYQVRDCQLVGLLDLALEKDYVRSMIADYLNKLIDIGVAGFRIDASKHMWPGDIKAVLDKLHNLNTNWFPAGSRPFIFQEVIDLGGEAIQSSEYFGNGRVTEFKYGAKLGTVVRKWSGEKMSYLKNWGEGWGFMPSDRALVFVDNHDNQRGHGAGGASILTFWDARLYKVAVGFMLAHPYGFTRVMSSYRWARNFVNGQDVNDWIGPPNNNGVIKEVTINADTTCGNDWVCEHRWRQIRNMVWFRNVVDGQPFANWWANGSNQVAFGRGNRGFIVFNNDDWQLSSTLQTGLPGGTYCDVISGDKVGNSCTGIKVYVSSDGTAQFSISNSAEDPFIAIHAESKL

[18] = test system: Salmonella abony NCTC 6017; experiment: Broth microdilution MIC; format: cell-based
[19] = TRC (total reducing capacity) ferric reducing power assay; conditions: L-ascorbic acid equivalents
[20] = biological target: acetylcholinesterase (AChE); conditions: ref Kuppusamy et al. (2017) [40]; cited from earlier work
tyrosinase = conditions: ref Wille and Berhow (2011) [37]; cited from earlier work
[21] = cited from earlier work
[22] = parameters: method as in Glišić et al. (2024) [4]; conditions: ref Glišić et al. (2024) [4]; cited from earlier work
[23] = parameters: method as in Glišić et al. (2024) [4]; conditions: ref Glišić et al. (2024) [4]; cited from earlier work; remark: listed apart in the source
[24] = parameters: method as in Glišić et al. (2024) [4]; conditions: ref Glišić et al. (2024) [4]; cited from earlier work; remark: listed apart in the source

α-glucosidase from bakers’ yeast, sequence (P53341 whole entry, looked up): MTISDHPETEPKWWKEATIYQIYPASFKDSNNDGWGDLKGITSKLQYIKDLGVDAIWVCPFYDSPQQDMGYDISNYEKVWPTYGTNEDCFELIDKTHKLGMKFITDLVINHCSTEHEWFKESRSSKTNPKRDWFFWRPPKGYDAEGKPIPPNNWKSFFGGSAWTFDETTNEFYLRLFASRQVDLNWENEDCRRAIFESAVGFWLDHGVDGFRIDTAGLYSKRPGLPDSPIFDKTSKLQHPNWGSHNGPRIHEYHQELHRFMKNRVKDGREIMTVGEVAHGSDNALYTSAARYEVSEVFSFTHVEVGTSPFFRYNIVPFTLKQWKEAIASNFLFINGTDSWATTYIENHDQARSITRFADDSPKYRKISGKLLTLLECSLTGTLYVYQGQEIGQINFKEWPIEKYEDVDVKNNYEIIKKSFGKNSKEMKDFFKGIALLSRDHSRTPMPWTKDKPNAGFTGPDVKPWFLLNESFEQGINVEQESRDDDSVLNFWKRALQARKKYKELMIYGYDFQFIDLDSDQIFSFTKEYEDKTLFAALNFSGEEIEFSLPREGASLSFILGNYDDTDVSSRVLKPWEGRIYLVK
butyrylcholinesterase (BChE) from equine serum, sequence (P81908 whole entry, looked up): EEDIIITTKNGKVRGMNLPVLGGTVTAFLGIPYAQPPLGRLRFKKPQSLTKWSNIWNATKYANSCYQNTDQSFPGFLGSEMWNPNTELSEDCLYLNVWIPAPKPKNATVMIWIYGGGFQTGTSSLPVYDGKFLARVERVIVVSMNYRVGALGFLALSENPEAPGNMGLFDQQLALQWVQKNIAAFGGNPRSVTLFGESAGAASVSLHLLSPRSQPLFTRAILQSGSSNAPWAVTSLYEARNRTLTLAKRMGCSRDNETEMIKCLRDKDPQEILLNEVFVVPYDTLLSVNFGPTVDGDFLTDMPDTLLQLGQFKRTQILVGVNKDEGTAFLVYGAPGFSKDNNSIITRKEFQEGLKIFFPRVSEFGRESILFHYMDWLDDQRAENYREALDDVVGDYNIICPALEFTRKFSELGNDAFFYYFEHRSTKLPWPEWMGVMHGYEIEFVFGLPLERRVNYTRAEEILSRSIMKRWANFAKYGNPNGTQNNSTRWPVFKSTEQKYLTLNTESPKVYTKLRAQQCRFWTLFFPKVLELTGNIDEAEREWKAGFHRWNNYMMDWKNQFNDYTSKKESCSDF
acetylcholinesterase (AChE) from Electrophorus electricus, sequence (O42275 24-633 limits assumed): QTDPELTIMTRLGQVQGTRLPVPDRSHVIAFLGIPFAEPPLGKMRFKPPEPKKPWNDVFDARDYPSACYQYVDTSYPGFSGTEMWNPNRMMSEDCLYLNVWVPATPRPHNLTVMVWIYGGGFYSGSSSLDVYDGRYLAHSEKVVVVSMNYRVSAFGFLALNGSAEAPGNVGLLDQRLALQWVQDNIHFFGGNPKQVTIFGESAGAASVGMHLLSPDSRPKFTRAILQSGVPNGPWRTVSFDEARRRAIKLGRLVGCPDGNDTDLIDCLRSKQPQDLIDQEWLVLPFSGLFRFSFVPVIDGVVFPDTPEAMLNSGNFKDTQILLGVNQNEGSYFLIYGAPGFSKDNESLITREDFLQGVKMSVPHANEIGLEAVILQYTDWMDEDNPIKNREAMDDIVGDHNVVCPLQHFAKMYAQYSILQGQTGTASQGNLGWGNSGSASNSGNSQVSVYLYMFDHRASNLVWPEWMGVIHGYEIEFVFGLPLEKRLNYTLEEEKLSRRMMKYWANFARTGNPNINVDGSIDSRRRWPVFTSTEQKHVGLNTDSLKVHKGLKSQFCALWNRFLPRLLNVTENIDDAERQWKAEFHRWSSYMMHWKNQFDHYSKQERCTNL

Compound: COc1cc(/C=C/C(=O)O)ccc1O [FA, ferulic acid]
- MIC [1]: 500 µg/mL (≈ 2.57 mM)
- Minimal Inhibitory Concentrations MICs [2]: >500 µg/mL
- Minimal Inhibitory Concentrations MICs [3]: 125 µg/mL
- α-amylase IC50 (α-amylase; mg/mL figure given in parentheses beside mM): 1840 µg/mL
- IC50 (α-amylase): 9.5 mM
- DPPH IC50 [4]: 0.0068 ± 0.0001 ^c mg/mL
- α-glucosidase IC50 [5]: 1.49 ± 0.18 ^a mg/mL
- DPPH radical inhibition [6]: 84.3–92.3%
- Minimal Inhibitory Concentrations MICs [7]: >500 µg/mL
- ABTS IC50 [8]: 0.0034 ± 0.0001 ^d mg/mL
- MIC [9]: ≥ 1000 µg/mL
- Minimal Inhibitory Concentrations MICs [10]: >500 µg/mL
- Minimal Inhibitory Concentrations MICs [11]: >500 µg/mL
- BChE IC50 [12]: 1.97 ± 0.08 ^c mg/mL
- AChE IC50 [13]: 4.10 ± 0.37 ^c mg/mL
- α-glucosidase IC50 (α-glucosidase; mg/mL figure given in parentheses beside mM, ref Jeong et al. (2012) [29]): 950 µg/mL
- IC50 (α-glucosidase; ref Jeong et al. (2012) [29]): 4.9 mM
- α-glucosidase IC50 (α-glucosidase; ref Nile and Park (2014) [34]): 251.4 µg/mL
- FRAP [14]: 2.02 ± 0.04 ^a µmol Fe^2+/g
- FRAP ([14]; listed as ferulic acid): 2.02 µmol Fe^2+/g
- Minimal Inhibitory Concentrations MICs [15]: 62.5 µg/mL
- Minimal Inhibitory Concentrations MICs [16]: 62.5 µg/mL
- α-amilase IC50 [17]: 3.35 ± 0.85 ^b mg/mL
- Minimal Inhibitory Concentrations MICs [18]: >500 µg/mL
- TRC [19]: 2467.90 ± 91.26 ^a mg L-AAE/g
- TRC ([19]; listed as ferulic acid): 2467.90 mg L-AAE/g

Compound: O=c1cc(-c2cc(O)c(O)c(O)c2)oc2cc(O)cc(O)c12 [tricetin]
- AChE IC50 [20]: 18.28 µg/mL

Compound: COc1cc([C@H](O)[C@H](CO)Oc2c(OC)cc(-c3cc(=O)c4c(O)cc(O)cc4o3)cc2OC)ccc1O [salcolin B, tricin 4′-O-(erythro-β-guaiacylglyceryl)ether]
- DPPH IC50 ([6]; isolated from medicinal rice (Oryza sativa L.), ref Mohanlal et al. (2011) [7]): 352.04 µg/mL

Compound: O=C(O)CC1C(=O)Nc2cccc(O)c21 (stereo not drawn) [tasselin A, 4-hydroxy-1-oxindole-3-acetic acid]
- IC50 (tyrosinase): 0.75 mM

Compound: Cc1cc(C(C)(C)C)c(O)c(C(C)(C)C)c1 [BHT, butylated hydroxytoluene]
- ABTS radicals scavenged ([21]; at 0.2 mg/mL, ref [27]): 50.32%
- ABTS IC50 ([21]; ref Yang et al. (2024) [20]): 140 µg/mL
- FRAP [22]: 0.41 µmol Fe^2+/g and 0.41 ± 0.03 ^c µmol Fe^2+/g and 0.41 ± 0.03 ^d µmol Fe^2+/g
- DPPH radicals scavenged ([6]; at 0.2 mg/mL, ref [27]): 47.32%
- DPPH radical inhibition [6]: 73.9–90.7%
- DPPH IC50 ([6]; methanol extracts from unfermented straw, ref Đorđević et al. (2019) [12]): 50 µg/mL
- DPPH IC50 ([6]; ref Yang et al. (2024) [20]): 150 µg/mL
- DPPH IC50 [23]: 0.038 ± 0.001 ^e mg/mL
- ABTS IC50 [24]: 0.040 ± 0.002 ^e mg/mL
- TRC [19]: 615.02 ± 38.87 ^c mg L-AAE/g

Compound: O=C1O[C@H]([C@@H](O)CO)C(O)=C1O [L-AA, L-ascorbic acid]
- FRAP [22]: 1.618 ± 0.004 ^e µmol Fe^2+/g and 1.618 ± 0.004 ^b µmol Fe^2+/g
- DPPH IC50 ([6]; ref Barnawi et al. (2023) [28]): 2.51 µg/mL
- DPPH IC50 ([6]; ref Dewi et al. (2021) [15]): 3.55 µg/mL
- DPPH IC50 ([6]; ref Elemosho et al. (2021) [26]): 4630 µg/mL
- DPPH IC50 [23]: 0.0057 ± 0.0003 ^f mg/mL
- ABTS IC50 [24]: 0.0316 ± 0.0003 ^e mg/mL
